IC50 and Solubility data for 2 molecules are collected here from US7112608B2, “Hydroxyphenylundecane, a process for their production and their use” (Sanofi-Aventis Deutschland GmbH, priority 2002, dated 2006).

The target of one series is T1, JNK3 (Homo sapiens, UniProt P53779).
T1 construct: Biotech, Vitry
The series can be described thus: JNK3 Assay (HTRF, JNK-3/GST-ATF2). The series is classed as biochemical. The settings on record: JNK3 kinase, GST-ATF2 substrate, 15 μM ATP solution, 20 min at 37° C. The protocol: The assay was performed on a Cybio pipetting system in the 384-well plate format. The final assay volume was 30 μl, comprising 10 μl of a probe (an extract or a pure substance-to-be-tested), 10 μl of an enzym-subtrate mixture (JNK-3/GST-ATF2) and 10 μl ATP solution. After 20 min incubation at 37° C. 50 μl HTRF abtibody mixture (XL665-anti-GST/(Eu)cryptat anti-P-ATF2) were added. The emission intensity of the energy transfer and of Eu at 665 and 615 nm, resp., were measured after 120 min at room temperature and stimulation of the probes at 340 nm in a Victor2® (Wallac).
Buffer I for diluting JNK3, GST-ATF2, ATP:
Buffer II for diluting HTRF reagents:
Each plate included 16 positiv controls (maximum energy transfer, buffer I instead of probe), 8 blank controls (minimal energy transfer, buffer 11 instead of ATP) and 8 wells containing a 200 μM EDTA solution.
The results were calculated as follows:
Signal Ration: SR=(intensity(665 nm)/intensity(615 nm)) Blank Correction: Delta F(%)=[…] Inhibition: Inhibition (%)=100×[1−(Delta F(Probe)/Delta F(max))
A general note: In TR-FRET formats the signal depends on donor and acceptor labels being close together.

Series [1] in a line: Physico chemical properties: solubility. The series is classed as physicochemical. The settings on record: solvents in which the compound is soluble.

T1 sequence (P53779 whole entry): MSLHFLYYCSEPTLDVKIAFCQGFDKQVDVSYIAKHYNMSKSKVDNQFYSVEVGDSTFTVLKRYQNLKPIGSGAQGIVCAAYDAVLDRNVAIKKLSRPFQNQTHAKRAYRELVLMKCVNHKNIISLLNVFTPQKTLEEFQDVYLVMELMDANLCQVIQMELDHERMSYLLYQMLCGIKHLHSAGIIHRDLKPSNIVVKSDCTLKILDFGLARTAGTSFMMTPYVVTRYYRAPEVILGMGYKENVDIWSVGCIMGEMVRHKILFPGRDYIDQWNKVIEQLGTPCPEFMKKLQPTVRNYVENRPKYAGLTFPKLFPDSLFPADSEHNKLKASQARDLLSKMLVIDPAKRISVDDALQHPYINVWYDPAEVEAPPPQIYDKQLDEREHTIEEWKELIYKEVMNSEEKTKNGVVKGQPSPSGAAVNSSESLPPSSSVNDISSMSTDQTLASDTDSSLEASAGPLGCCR

With `CCCCCCCCCCCc1cc(O)cc(O)c1C(=O)OC(CCC)CCCCCCCc1cc(OS(=O)(=O)O)cc(OS(=O)(=O)O)c1` (stereo not drawn) [Spinosulfate A], the midpoint of inhibition at JNK3, the IC50, lay at 0.5 µM. Further, the Solubility entry in series [1] is “Methanol, DMSO”.

For the molecule `CCCCCCCCCCCc1cc(O)cc(O)c1C(=O)OC(CCC)CCCCCCCc1cc(O)cc(O)c1` (stereo not drawn) [Spinosulfate B], the IC50 – broadly, the concentration that inhibits the measured activity by half – against JNK3 came out at 10 µM.
